The values below come from ChEMBL document CHEMBL1134891, “Design and synthesis of conformationally restricted eight-Membered ring diketones as potential serine protease inhibitors” (Bioorg Med Chem Lett, 2002).

As a reminder, the inhibition is the share of the control response that was lost under treatment.

In experiment [1] the target is Urokinase-type plasminogen activator (Homo sapiens) (UniProt P00749). The experiment is described as follows: Compound was tested for percentage inhibition of urokinase in enzyme rate assays; NI denotes no significant inhibition at 100 uM.
Experiment [2] concerns the target Plasminogen (Homo sapiens) (UniProt P00747). The experiment can be described thus: Compound was tested for percentage inhibition of plasmin in enzyme rate assays; NI denotes no significant inhibition at 100 uM.
For experiment [3] the target is unchanged. The experiment can be described thus: Compound was tested for percentage inhibition of plasmin in enzyme rate assays. The note with it: concentration not given here.
In experiment [4] the target is Urokinase-type plasminogen activator (Homo sapiens) (UniProt P00749). The experiment is described as follows: Compound was tested for percentage inhibition of urokinase in enzyme rate assays. Conditions: concentration not given here.

Plasminogen (Homo sapiens), sequence (P00747 97-580 limits assumed): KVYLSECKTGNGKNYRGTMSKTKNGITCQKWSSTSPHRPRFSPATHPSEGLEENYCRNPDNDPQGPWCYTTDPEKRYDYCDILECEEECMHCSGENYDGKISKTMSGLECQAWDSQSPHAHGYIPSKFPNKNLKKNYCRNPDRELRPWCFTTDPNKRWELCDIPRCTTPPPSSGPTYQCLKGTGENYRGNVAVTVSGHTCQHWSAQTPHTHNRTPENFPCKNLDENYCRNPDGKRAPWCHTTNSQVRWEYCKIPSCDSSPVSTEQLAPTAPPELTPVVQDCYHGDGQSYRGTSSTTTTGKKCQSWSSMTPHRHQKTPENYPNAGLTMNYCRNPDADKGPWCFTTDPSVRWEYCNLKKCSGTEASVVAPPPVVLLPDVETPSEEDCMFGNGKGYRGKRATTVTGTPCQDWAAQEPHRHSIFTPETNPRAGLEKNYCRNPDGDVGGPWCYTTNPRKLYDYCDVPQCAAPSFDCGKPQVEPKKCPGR
Plasminogen (Homo sapiens), sequence (P00747 581-810 limits assumed): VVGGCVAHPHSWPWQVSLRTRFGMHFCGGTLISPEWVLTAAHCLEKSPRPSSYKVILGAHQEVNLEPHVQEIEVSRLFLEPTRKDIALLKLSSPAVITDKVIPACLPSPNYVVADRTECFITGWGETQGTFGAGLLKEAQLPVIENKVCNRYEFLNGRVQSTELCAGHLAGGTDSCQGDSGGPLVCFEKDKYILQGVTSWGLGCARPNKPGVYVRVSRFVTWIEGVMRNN

With `CC[C@]1(C)CC[C@]2(C)[C@H](C)CC[C@]3(CCC(=O)[C@H]32)C(=O)C1=O`, the inhibition result in experiment [1] and in experiment [2] was “No inhibition” each time.

Regarding `CC(=O)N[C@]1(C)CC[C@]2(C)[C@H](C)CC[C@]3(CCC(=O)[C@H]32)C(=O)C1=O`, the inhibition worked out at 25% in experiment [3] and 28% in experiment [4].
